Assay results from patent publication US20050090471A1, “Inhibitors of cyclin-dependent kinases, compositions and uses related thereto” (GPC Biotech, Inc, priority 2001, published 2005).

Tests used:
HCT-116 cells = assay: BrdU incorporation into DNA (flow cytometry); assay type: cell-based, human; parameters: unit not given here; conditions: inhibition of BrdU incorporation, unit not given; for BrdU 24: analysis at 24 hours; for BrdU 48: analysis at 48 hours; for BrdU 72: analysis at 72 hours
Description: This method measured the percentage of cells that incorporated the nucleotide analog, BrdU, into newly synthesized DNA as cells progressed through the S phase of the cell cycle. The inhibition of BrdU incorporation was used as a measure of a Cdlc inhibitor's effect on S phase progression and DNA replication.
3 sets of HCT-116 cells (100,000 cells/set) were plated in T25 flasks and incubated with a test compound as above. Analysis was done at 24, 48, and 72 hours. BrdU was added to each T-25 flask from a stock of 10 mg/ml to a final concentration of 10 μM and the cells were incubated for an additional 16-18 hours at 37° C. The cells were then prepared for flow cytometric analysis according to manufacturer's protocol (BrdU Flow kit, BD-Pharmingen catalogue # 2354KK) as follows:
Cells were harvested (adherent and floating) from the T25 flasks directly into Falcon 12×75 flow cytometric tubes as above followed by fixation and permeabilization with the addition of 100 μl Cytofix/Cytoperm buffer (30 minutes, room temperature). The cells were then washed with 1 ml of Perm Wash buffer and the cell pellets were resuspended in 100 μl Cytoperm Plus buffer and incubated on ice for 10 minutes. The cells were then washed again with 1 ml of Perm Wash buffer and the fixation was repeated in 100 μl of Cytofix/Cyto Perm buffer for 10 minutes at room temperature. The cells were then washed with 1 ml of Perm Wash buffer. The cells were next treated for one hour at 37° C. with 100 μl DNase to expose incorporated BrdU followed by another wash step with 1 ml of Perm Wash buffer. […] Cells were protected from light and incubated at room temperature for 20-30 minutes. Following the incubation, the cells were washed with 1 ml of Perrn Wash buffer, resuspended in 300 μl of 2% FBS in PBS, and analyzed on the flow cytometer.

[1] = system: NCI panel of 60 cell lines; assay: NCI panel of human tumor cell lines (SRB assay), MG-MID; assay type: cell-based; conditions: 48 hours incubation with compound
Text: The evaluation of compounds at the National Cancer Institute in their panel of 60 cell lines provides a wealth of information regarding efficacy in a wide range of tumor types and genetic backgrounds. Included within this panel are cell lines derived from leukemia, melanoma and cancers of the lung, colon, brain, ovary, breast, prostate and kidney. Use of this panel provides a measure of the efficacy of compounds in cells with alterations in many genes that are associated with neoplastic transformation including p53 and Her2/Neu as well as those involved in metabolism and those which confer multi-drug resistance. The data generated in these cell lines with the protocol described below can be used to evaluate the activity of compounds.
Cells were grown in RPMI-1640 10% FCS and plated in 96 well micro-titer plates at densities ranging from 5,000 to 40,000 cells/well. The plates were incubated for 24 hours at 37° C., 5% CO2 for 24 hours. Media containing twice the desired final concentration of the compound (5 doses spanning 4 logs) was prepared and 100 μl was added to each well containing 100 μl media plus cells to yield the desired final concentration. The plates were then incubated for an additional 48 hours.
The effect of the compound on cellular viability was determined with the Sulforhodamine B (SRB) assay which measures total protein. Cells were fixed with cold TCA to a fmal concentration of 10% and incubated at 4° C. for 60 minutes. The supernatant was discarded and the plates were washed five times with water and air-dried. SRB solution at […] in 1% acetic acid was added to each well and the plates were incubated for 10 minutes at room temperature. The plates were washed five times with 1% acetic acid and air-dried. The bound stain was solubilized with 10 mM trizma base and the absorbance was read on a plate reader at […].

arrested IMR90 cells = assay: Arrested cell assay (serum starvation), IMR90; assay type: cell-based, human; parameters: unit not given here; conditions: serum-starved arrested cells; unit not given
Description: Cyclin-dependent kinase (Cdk) activity is required to promote the progression of cells through distinct phases of the cell division cycle. The proliferation of normal, non-transformed, cells in culture requires the presence of growth factors, the removal of which, through serum deprivation, leads to a loss of Cdlc activity and consequent exit from the cell cycle as cells enter the quiescent phase, Go.
IMR90 cells were plated in triplicate for each compound concentration to be tested in MEM-α media containing 10% fetal calf serum at a density of either 2,000 or 20,000 cells per well in 24-well dishes and incubated overnight at 37° C., 5% CO2. The media was removed from the 20,000 cell-per-well dish, cells were washed once with serum-free media, and serum-fiee media was placed on cells. The plates containing cells both in the presence and absence of serum were incubated for 3 additional days.
To ensure that the cells had indeed exited the cell cyde upon serum withdrawal, the percentage of BrdU positive cells, indicative of those progressing through S phase, was determined in each experiment. For the purpose of this experiment, cellular viability was evaluated simultaneously with the use of SNARF-1, a fluorescent substrate of intracellular esterases which are only active in viable cells. Together, the evaluation of BrdU incorporation and SNARF-1 cleavage by flow cytometry provided an assessment of the viability of arrested cells on a single cell basis. For this analysis, the cells were stained with SNARF-1 as follows and then prepared for determination of BrdU incorporation as described above.
HCT-116 and IMR90 cells were plated at the density described below in T25 flasks in serum-containing media (RPMI-1640 or MEM-a with 10% FCS, respectively). After 24 hours of growth, the media was removed and, after washing the cells, replaced with serum-free media. • HCT-116+FCS 5,000 cells • HCT-116−FCS 100,000 cells • IMR90+FCS 100,000 cells • IMR90−FCS 200,000 cells
The IMR90 cells were grown for an additional 3 days and the HCT-116 cells were grown for an additional 6 days before pulsing with BrdU. A 50 μg aliquot of SNARF-1 (Molecular Probes catalog #C1272) was dissolved in 50 μl DMSO at room temperature for 10 minutes and then diluted into 10 ml PBS. The SNARF-1 was further diluted 1:64,000 before 200 μl was added to each tube of cells which had been cultured in the presence or absence of serum and pulsed with BrdU for 20 hours. The cells were incubated at 37° C. for 30 minutes and then washed with 3 ml of PBS.
These cells were then fixed and prepared for the measurement of BrdU incorporation as described above. The percentage of viable (FL-2) and BrdU positive (FL-1) cells was determined on a FACScan flow cytometer.

Compound	BrdU 24 (HCT-116 cells)	BrdU 48 (HCT-116 cells)	BrdU 72 (HCT-116 cells)	NCI panel MG-MID [1]	Arrested cell IMR90 (arrested IMR90 cells)
CC(C)N1CCN(CCOc2ccc(-c3[nH]nc4c3C(=O)c3c(NC(=O)NN5CCOCC5)cccc3-4)cc2)CC1.Cl.Cl.Cl [E]	<0.01	<0.1	<0.1	<0.1 µM	>0.1
CC(C)N1CCN(Cc2cc(-c3[nH]nc4c3C(=O)c3c(NC(=O)NN5CCOCC5)cccc3-4)ccc2O)CC1.Cl.Cl.Cl.Cl [K]	<0.1	<0.1	<0.1	<0.1 µM	>1.0
CC(C)c1nn(-c2c(Cl)cccc2Cl)c2nc(Cc3ccc(O)c(CN4CCN(C(C)C)CC4)c3)[nH]c(=O)c12.Cl.Cl [Compound C]	<0.1	<0.1	<1	<0.1 µM	>1.0
CCCN(CCOc1ccc(-c2[nH]nc3c2C(=O)c2c(NC(=O)NN4CCOCC4)cccc2-3)cc1)CC1CC1.Cl.Cl.Cl [G]	<0.01	<0.1	<0.1	<0.1 µM	>0.1
Cl.Cl.Cl.O=C(Nc1cccc2c1C(=O)c1c-2n[nH]c1-c1ccc(OCCN2CCCC2)cc1)NN1CCOCC1 [Compound I]	<0.01	<0.1	<0.1	<0.1 µM	>1.0
Cl.Cl.Cl.O=C(Nc1cccc2c1C(=O)c1c-2n[nH]c1-c1ccc(OCCN(CCO)CCO)cc1)NN1CCOCC1 [H]	<1	<1	<1	<0.1 µM	>1.0
CN1CCN(NC(=O)Nc2cccc3c2C(=O)c2c-3n[nH]c2-c2ccc(OCCN3CCCC3)cc2)CC1.Cl.Cl.Cl [F]	–	<0.1	<1	<0.1 µM	>1.0
CN1CCN(NC(=O)Nc2cccc3c2C(=O)c2c-3n[nH]c2-c2ccc(OCCN3CCOCC3)cc2)CC1.Cl.Cl [Q]	<0.1	<0.1	<0.1	<0.1 µM	>0.1
